{"source": "patent US20090054469A1", "about": "“QUINAZOLINONE DERIVATIVES AND THEIR USE AS B-RAF INHIBITORS” (ASTRAZENECA AB, priority 2005, published 2009)", "target": "T1, human recombinant, purified wild type His-B-Raf protein kinase (Homo sapiens, UniProt P15056)", "T1 construct": "His", "T1 sequence (P15056 whole entry)": "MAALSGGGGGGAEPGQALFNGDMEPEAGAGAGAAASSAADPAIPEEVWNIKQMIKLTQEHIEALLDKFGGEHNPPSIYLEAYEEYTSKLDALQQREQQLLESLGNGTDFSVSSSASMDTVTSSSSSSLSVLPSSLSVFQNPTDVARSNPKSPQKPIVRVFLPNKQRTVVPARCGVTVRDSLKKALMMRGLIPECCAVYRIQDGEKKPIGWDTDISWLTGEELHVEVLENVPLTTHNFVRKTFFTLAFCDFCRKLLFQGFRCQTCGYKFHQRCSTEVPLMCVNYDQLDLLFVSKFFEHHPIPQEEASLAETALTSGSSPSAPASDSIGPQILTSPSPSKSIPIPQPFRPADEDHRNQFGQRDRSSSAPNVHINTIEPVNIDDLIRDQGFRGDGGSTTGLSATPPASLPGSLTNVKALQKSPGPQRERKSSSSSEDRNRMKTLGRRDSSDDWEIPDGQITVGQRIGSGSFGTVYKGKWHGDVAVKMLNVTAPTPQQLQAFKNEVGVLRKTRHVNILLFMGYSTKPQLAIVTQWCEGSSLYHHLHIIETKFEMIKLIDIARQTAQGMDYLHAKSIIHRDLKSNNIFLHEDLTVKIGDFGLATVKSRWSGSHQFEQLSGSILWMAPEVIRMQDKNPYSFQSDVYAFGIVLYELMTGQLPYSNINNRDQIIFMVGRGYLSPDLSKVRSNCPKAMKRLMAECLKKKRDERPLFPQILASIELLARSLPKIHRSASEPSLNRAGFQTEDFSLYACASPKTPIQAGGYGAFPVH", "experiment": "B-Raf In Vitro ELISA Assay", "format": "biochemical", "details": "2.5 nM B-Raf, 0.15 μM MEK1, 10 μM ATP; 1 hour preincubation at 25° C.; phosphorylation of MEK1", "procedure": "B-Raf In Vitro ELISA Assay\nActivity of human recombinant, purified wild type His-B-Raf protein kinase was determined in vitro using an enzyme-linked immunosorbent assay (ELISA) assay format, which measures phosphorylation of the B-Raf substrate, human recombinant, purified His-derived (detagged) MEK1. The reaction utilized 2.5 nM B-Raf, 0.15 μM MEK1 and 10 μM adenosine triphosphate (ATP) in 40 mM N-(2-hydroxyethyl)piperazine-N′-(2-ethanesulfonic acid hemisodium salt (HEPES), 5 mM 1,4-dithio-DL-threitol (DTT), 10 mM MgCl2, 1 mM ethylenediaminetetraacetic acid (EDTA) and 0.2 M NaCl (1×HEPES buffer), with or without compound at various concentrations, in a total reaction volume of 25 μl in 384 well plates. B-Raf and compound were preincubated in 1×HEPES buffer for 1 hour at 25° C. Reactions were initiated with addition of MEK1 and ATP in 1×HEPES buffer and incubated at 25° C. for 50 minutes and reactions stopped by addition of 10 μl 175 mM EDTA (final concentration 50 mM) in 1×HEPES buffer. 5 μl of the assay mix was then diluted 1:20 into 50 mM EDTA in 1×HEPES buffer, transferred to 384 well black high protein binding plates and incubated overnight at 4° C. […] Blue fluorescent product was detected at excitation 325 nm and emission 420 nm using a TECAN Ultra plate reader. Data was graphed and IC50s calculated using Excel Fit (Microsoft)."}
{"compound": "Cc1ccc(NC(=O)c2cccc(C(C)(C)C#N)c2)cc1NC(=O)c1ccc2nc[nH]c(=O)c2c1", "note": "[Example 1, N-(5-{[3-(1-Cyano-1-methylethyl)benzoyl]amino}-2-methylphenyl)-4-oxo-3,4-dihydroquinazoline-6-carboxamide]", "values": [{"measurement": "IC50", "result": 1, "unit": "nM"}]}
{"compound": "Cc1ccc(NC(=O)c2cccc(C(C)(C)C#N)c2)cc1NC(=O)c1ccc2ncn(C)c(=O)c2c1", "note": "[Example 6, N-(5-{[3-(1-Cyano-1-methylethyl)benzoyl]amino}-2-methylphenyl)-3-methyl-4-oxo-3,4-dihydroquinazoline-6-carboxamide]", "values": [{"measurement": "IC50", "result": 3, "unit": "nM"}]}
